Results: PMC5972026 (Journal of medicinal chemistry, 2017)
“Also recorded” adds a separate entry of the source. Counter-ions that a name gives are not always drawn.

Legend:
[1] = system: A/HK/7/87 virus (H3N2 subtype), wt M2; type: cell-based, influenza A virus
[2] = system: A/HK/7/87 virus (H3N2 subtype), wt M2; type: cell-based, influenza A virus; remark: listed apart in the source
[3] = target: A/M2 wt channel (A/Udorn/72) (Influenza A virus, UniProt P0DOF5); assay: cell-based; type: cell-based
Chain of A/M2 wt channel (A/Udorn/72) (P0DOF5 whole entry, looked up): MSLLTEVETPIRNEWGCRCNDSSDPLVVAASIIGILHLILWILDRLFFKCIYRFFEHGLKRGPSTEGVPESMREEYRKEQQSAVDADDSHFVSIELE

MDCK cells = settings: 100 μM

SMILES	Antiviral activity confirmed in virus yield assay [1]	Antiviral activity in the PRA [2]	Binding behaviour [3]	Reversibility of inhibition [3]	Time after which compound dissociated from the channel [3]	Cytotoxicity at highest concentration tested (MDCK cells)	inhibition at 100 µM ([3]; read-out: Inhibition after 6 min of treatment, 100 μM, 6 min)
C1CC(C23CC4CC(CC(C4)C2)C3)CCN1 [Compound 2, 4-(1-adamantyl)piperidine hydrochloride]	confirmed	active	strong binder	essentially irreversible			
N=C(N)N1CCC(C23CC4CC(CC(C4)C2)C3)CC1 [Compound 7, N-amidyl-4-(1-adamantyl)piperidine hydrochloride]		did not display antiviral activity	weak binding affinity; also recorded: fast and weak binder		5 min		
C1CCC(C23CC4CC(CC(C4)C2)C3)NC1 (stereo not drawn) [Compound 8, 2-(1-adamantyl)piperidine hydrochloride]	confirmed	active	strong binders; also recorded: very slow but strong binding	essentially irreversible		devoid of cytotoxicity	> 90%
Cl.OC1(CC2CCNCC2)C2CC3CC(C2)CC1C3 (stereo not drawn) [Compound 15, 2-(piperidin-4-ylmethyl)adamantan-2-ol hydrochloride]		active					
N=C(N)N1CCC(C=C2C3CC4CC(C3)CC2C4)CC1 [Compound 19, 4-[(adamantan-2-ylidene)methyl]piperidine-1-carboximidamide hydrochloride]		did not display antiviral activity	weak binding affinity				
N=C(N)N1CCC(CC2C3CC4CC(C3)CC2C4)CC1 (stereo not drawn) [Compound 20, 4-[(adamantan-2-yl)methyl]piperidine-1-carboximidamide hydrochloride]		did not display antiviral activity	weak binding affinity				
